Where two headings read alike, the source gives them in different places.
Legend:
Format in all cases: biochemical
[1] = biological target: CDK6/CCND1 (Homo sapiens, UniProt Q00534); assay: CDK6 homogeneous time-resolved fluorescence (HTRF) kinase assay; conditions: CDK6/CCND, 1 mM ATP
How it was run: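 Enzyme pre-incubated 20 min at 23 °C with compound, then reacted 60 min at 23 °C with 1 mM ATP and 50 nM ULight-4E-BP1 (Thr37/46) peptide; 1 nM enzyme, 1% DMSO. EDTA-stopped, Eu-anti-phospho antibody TR-FRET read (665 nm or 665/615 ratio); 11-point half-log titration from 10 μM gave IC50.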

[2] = biological target: CDK2/CCNE1 (Homo sapiens, UniProt P24941); assay: CDK2 homogeneous time-resolved fluorescence (HTRF) kinase assay; conditions: CDK2/CCNE
How it was run: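 3 nM CDK2/CCNE1 was preincubated with compound for 20 min at 23 °C in HEPES buffer (pH not stated), then reacted 60 min with 1 mM ATP and 50 nM ULight-4E-BP1 (Thr37/46) peptide. After EDTA stop, Eu-anti-phospho-4E-BP1 antibody (2 nM) was added for 60 min and TR-FRET read at 665 nm.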

[3] = biological target: CDK1/CCNB1 (Homo sapiens, UniProt P06493); assay: CDK1 homogeneous time-resolved fluorescence (HTRF) kinase assay; conditions: CDK1/CCNB
Sequence of CDK1/CCNB1 (P06493 whole entry): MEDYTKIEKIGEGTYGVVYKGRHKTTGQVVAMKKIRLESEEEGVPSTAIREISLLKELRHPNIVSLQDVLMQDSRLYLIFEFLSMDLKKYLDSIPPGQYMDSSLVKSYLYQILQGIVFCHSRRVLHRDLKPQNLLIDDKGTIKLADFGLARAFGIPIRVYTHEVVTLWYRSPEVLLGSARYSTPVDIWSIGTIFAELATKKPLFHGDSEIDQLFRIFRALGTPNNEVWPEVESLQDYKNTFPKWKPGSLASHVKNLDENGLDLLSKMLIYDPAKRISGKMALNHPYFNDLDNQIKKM
Sequence of CDK1/CCNB1 (P14635 whole entry partner): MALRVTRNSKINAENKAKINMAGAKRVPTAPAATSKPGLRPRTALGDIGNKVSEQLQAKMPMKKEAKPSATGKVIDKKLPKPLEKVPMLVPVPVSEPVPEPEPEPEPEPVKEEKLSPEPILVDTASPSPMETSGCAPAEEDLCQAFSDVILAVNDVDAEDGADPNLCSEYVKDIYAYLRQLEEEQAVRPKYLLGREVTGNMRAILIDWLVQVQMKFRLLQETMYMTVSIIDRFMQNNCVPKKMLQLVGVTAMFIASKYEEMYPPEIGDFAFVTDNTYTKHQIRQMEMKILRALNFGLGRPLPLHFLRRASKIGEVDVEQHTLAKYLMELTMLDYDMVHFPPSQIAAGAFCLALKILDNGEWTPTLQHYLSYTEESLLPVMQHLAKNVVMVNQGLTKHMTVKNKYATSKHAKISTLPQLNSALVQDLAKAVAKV
How it was run: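 Compounds, titrated 11 points in half-log steps typically from 10 μM, were incubated with enzyme for 20 min before ATP (1 mM) and ULight-labelled eIF4E-binding protein 1 peptide (50 nM) started a 60-min reaction at 23 °C. Phosphopeptide was detected by europium-antibody TR-FRET and IC50 values were derived.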

[4] = biological target: CDK4/CCND3 (Homo sapiens, UniProt P11802); assay: CDK4 homogeneous time-resolved fluorescence (HTRF) kinase assay; conditions: CDK4/CCND
Sequence of CDK4/CCND3 (P11802 whole entry): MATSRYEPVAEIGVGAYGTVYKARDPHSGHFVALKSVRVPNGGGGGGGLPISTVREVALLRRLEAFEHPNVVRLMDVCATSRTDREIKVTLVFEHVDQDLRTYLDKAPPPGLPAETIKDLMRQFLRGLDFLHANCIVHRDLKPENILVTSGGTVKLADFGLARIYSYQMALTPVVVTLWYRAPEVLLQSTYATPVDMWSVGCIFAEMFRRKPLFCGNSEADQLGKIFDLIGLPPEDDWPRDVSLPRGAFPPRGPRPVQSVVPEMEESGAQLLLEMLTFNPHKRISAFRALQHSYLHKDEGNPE
Sequence of CDK4/CCND3 (P30281 whole entry partner): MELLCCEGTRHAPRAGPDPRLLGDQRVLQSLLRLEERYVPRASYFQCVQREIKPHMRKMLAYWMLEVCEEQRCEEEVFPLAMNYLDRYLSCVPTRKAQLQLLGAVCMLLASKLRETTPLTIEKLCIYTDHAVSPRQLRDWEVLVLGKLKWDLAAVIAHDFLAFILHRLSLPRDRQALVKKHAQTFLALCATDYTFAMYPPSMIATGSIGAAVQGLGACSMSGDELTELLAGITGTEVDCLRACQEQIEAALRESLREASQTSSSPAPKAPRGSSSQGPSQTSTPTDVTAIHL
How it was run: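 CDK4/CCND3 at 1.5 nM was preincubated with compound for 20 min at 23 °C, then reacted for 60 min with 1 mM ATP and 50 nM ULight-4E-BP1 (Thr37/46) peptide. The reaction was stopped with EDTA, and phosphorylation was read by HTRF with a Eu-anti-phospho antibody. IC50 values came from 11-point half-log titrations, typically from 10 μM.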

[5] = >250 nM, read-out: CDK6/CCND IC50, >250 nM
[6] = <25 nM, read-out: CDK2/CCNE IC50, <25 nM
[7] = >250 nM, read-out: CDK1/CCNB IC50 >250 nM
[8] = 25-250 nM, read-out: CDK4/CCND IC50, 25-250 nM
[9] = 25-250 nM, read-out: CDK6/CCND IC50, 25-250 nM
[10] = 25-250 nM, read-out: CDK1/CCNB IC50, 25-250 nM
[11] = >250 nM, read-out: CDK4/CCND IC50, >250 nM
[12] = 25-250 nM, read-out: CDK2/CCNE IC50, 25-250 nM

Sequence of CDK6/CCND1 (Q00534 whole entry): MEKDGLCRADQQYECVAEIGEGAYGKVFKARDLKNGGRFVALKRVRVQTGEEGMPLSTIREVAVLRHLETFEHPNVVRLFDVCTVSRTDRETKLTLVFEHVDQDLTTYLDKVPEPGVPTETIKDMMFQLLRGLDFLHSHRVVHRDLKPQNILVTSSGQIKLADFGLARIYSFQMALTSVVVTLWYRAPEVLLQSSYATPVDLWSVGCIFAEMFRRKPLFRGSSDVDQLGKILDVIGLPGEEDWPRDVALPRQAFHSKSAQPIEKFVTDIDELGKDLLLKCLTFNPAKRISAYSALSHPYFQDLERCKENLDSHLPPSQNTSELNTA
Sequence of CDK6/CCND1 (P24385 whole entry partner): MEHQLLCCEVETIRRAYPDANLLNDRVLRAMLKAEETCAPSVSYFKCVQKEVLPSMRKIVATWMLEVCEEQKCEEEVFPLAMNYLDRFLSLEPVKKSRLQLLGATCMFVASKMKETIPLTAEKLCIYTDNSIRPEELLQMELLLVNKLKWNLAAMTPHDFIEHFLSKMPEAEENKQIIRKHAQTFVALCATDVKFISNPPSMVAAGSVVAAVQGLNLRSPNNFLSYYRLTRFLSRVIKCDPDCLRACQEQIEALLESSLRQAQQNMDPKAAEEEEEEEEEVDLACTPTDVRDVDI

## CCN[S@](=N)(=O)c1ccc(Nc2cc3c(-c4ccc5c(cnn5CC(O)(C(F)(F)F)C(F)(F)F)c4C)nccc3cn2)cc1 [Example 682, (S)-N-ethyl-4-((5-(4-methyl-1-(3,3,3-trifluoro-2-hydroxy-2-(trifluoromethyl)propyl)-1H-indazol-5-yl)-2,6-naphthyridin-3-yl)amino)benzenesulfonimidamide]
[1]; [5]
  IC50: > 250 nM
[2]; [6]
  IC50: < 25 nM
[3]; [7]
  IC50: > 250 nM
[4]; [8]
  IC50: 25 to 250 nM

## N=S(=O)(c1ccc(Nc2cc3c(C#Cc4cnc5c(c4)NC(=O)CO5)nccc3cn2)cc1)C1CCC1 (stereo not drawn) [Example 686, 7-((7-((4-(cyclobutanesulfonimidoyl)phenyl)amino)-2,6-naphthyridin-1-yl)ethynyl)-1H-pyrido[2,3-b][1,4]oxazin-2(3H)-one]
[1]; [9]
  IC50: 25 to 250 nM
[2]; [6]
  IC50: < 25 nM
[3]; [7]
  IC50: > 250 nM
[4]; [8]
  IC50: 25 to 250 nM

## CC1(C)C(=O)Nc2cc(C#Cc3nccc4cnc(Nc5ccc([S@@](=N)(=O)NC6CCC6)cc5)cc34)ccc21 [Example 687, (S)-N-cyclobutyl-4-((5-((3,3-dimethyl-2-oxoindolin-6-yl)ethynyl)-2,6-naphthyridin-3-yl)amino)benzenesulfonimidamide]
[1]; [9]
  IC50: 25 to 250 nM
[2]; [6]
  IC50: < 25 nM
[3]; [10]
  IC50: 25 to 250 nM
[4]; [8]
  IC50: 25 to 250 nM

## CNS(=O)(=O)c1ccc(Nc2cc3c(-c4ccc5c(cnn5CC(O)(C(F)(F)F)C(F)(F)F)c4C)nccc3cn2)cc1 [Example 696, N-methyl-4-((5-(4-methyl-1-(3,3,3-trifluoro-2-hydroxy-2-(trifluoromethyl)propyl)-1H-indazol-5-yl)-2,6-naphthyridin-3-yl)amino)benzenesulfonamide]
[1]; [5]
  IC50: > 250 nM
[2]; [6]
  IC50: < 25 nM
[3]; [7]
  IC50: > 250 nM
[4]; [11]
  IC50: > 250 nM

## Cc1c(-c2nccc3cnc(Nc4ccc(S(=O)(=O)N(c5ncccn5)C5CC5)cc4)cc23)ccc2c1cnn2CC(O)(C(F)(F)F)C(F)(F)F [Example 698, N-cyclopropyl-4-((5-(4-methyl-1-(3,3,3-trifluoro-2-hydroxy-2-(trifluoromethyl)propyl)-1H-indazol-5-yl)-2,6-naphthyridin-3-yl)amino)-N-(pyrimidin-2-yl)benzenesulfonamide]
[1]; [5]
  IC50: > 250 nM
[2]; >250 nM, read-out: CDK2/CCNE IC50, >250 nM
  IC50: > 250 nM
[3]; [7]
  IC50: > 250 nM
[4]; [11]
  IC50: > 250 nM

## CS(=O)(=O)c1ccc(Nc2cc3c(C#CC4(O)CCCNC4)nccc3cn2)cc1 (stereo not drawn) [Example 699, 3-((7-((4-(methylsulfonyl)phenyl)amino)-2,6-naphthyridin-1-yl)ethynyl)piperidin-3-ol]
[1]; [5]
  IC50: > 250 nM
[2]; [6]
  IC50: < 25 nM
[3]; [7]
  IC50: > 250 nM
[4]; [8]
  IC50: 25 to 250 nM

## COc1cnc(NS(=O)(=O)c2ccc(Nc3cc4c(-c5ccc6c(cnn6CC(O)(C(F)(F)F)C(F)(F)F)c5C)nccc4cn3)cc2)cc1N1CCOCC1 [Example 700, N-(5-methoxy-4-morpholinopyridin-2-yl)-4-((5-(4-methyl-1-(3,3,3-trifluoro-2-hydroxy-2-(trifluoromethyl)propyl)-1H-indazol-5-yl)-2,6-naphthyridin-3-yl)amino)benzenesulfonamide]
[1]; [5]
  IC50: > 250 nM
[2]; [6]
  IC50: < 25 nM
[3]; [7]
  IC50: > 250 nM
[4]; [11]
  IC50: > 250 nM

## Cc1c(-c2nccc3cnc(Nc4ccc(NS(=O)(=O)c5ncccn5)cc4)cc23)ccc2c1cnn2CC(C)(C)O [Example 705, N-(4-((5-(1-(2-hydroxy-2-methylpropyl)-4-methyl-1H-indazol-5-yl)-2,6-naphthyridin-3-yl)amino)phenyl)pyrimidine-2-sulfonamide]
[1]; [9]
  IC50: 25 to 250 nM
[2]; [6]
  IC50: < 25 nM
[3]; [7]
  IC50: > 250 nM
[4]; [8]
  IC50: 25 to 250 nM

## Cc1ccc(NS(=O)(=O)c2ccc(Nc3cc4c(-c5ccc6c(cnn6CC(O)(C(F)(F)F)C(F)(F)F)c5C)nccc4cn3)cc2)cc1C(C)(C)O [Example 708, N-(3-(2-hydroxypropan-2-yl)-4-methylphenyl)-4-((5-(4-methyl-1-(3,3,3-trifluoro-2-hydroxy-2-(trifluoromethyl)propyl)-1H-indazol-5-yl)-2,6-naphthyridin-3-yl)amino)benzenesulfonamide]
[1]; [5]
  IC50: > 250 nM
[2]; [12]
  IC50: 25 to 250 nM
[3]; [7]
  IC50: > 250 nM
[4]; [11]
  IC50: > 250 nM

## Cc1c(-c2nccc3cnc(Nc4ccc(S(=O)(=O)Nc5ccccn5)cc4)cc23)ccc2c1cnn2CC(O)(C(F)(F)F)C(F)(F)F [Example 716, 4-((5-(4-methyl-1-(3,3,3-trifluoro-2-hydroxy-2-(trifluoromethyl)propyl)-1H-indazol-5-yl)-2,6-naphthyridin-3-yl)amino)-N-(pyridin-2-yl)benzenesulfonamide]
[1]; [5]
  IC50: > 250 nM
[2]; [6]
  IC50: < 25 nM
[3]; [7]
  IC50: > 250 nM
[4]; [11]
  IC50: > 250 nM

## CC[C@@H](C)NS(=O)(=O)c1ccc(Nc2cc3c(-c4ccc5c(cnn5CC(C)(C)O)c4C)nccc3cn2)cc1 [Example 721, (R)-N-(sec-butyl)-4-((5-(1-(2-hydroxy-2-methylpropyl)-4-methyl-1H-indazol-5-yl)-2,6-naphthyridin-3-yl)amino)benzenesulfonamide]
[1]; [5]
  IC50: > 250 nM
[2]; [6]
  IC50: < 25 nM
[3]; [7]
  IC50: > 250 nM
[4]; [11]
  IC50: > 250 nM

## CN1CCN(c2cc(Nc3cc4c(C#Cc5ccc(=O)[nH]n5)nccc4cn3)cnc2O)CC1 [Example 723, 6-((7-((6-hydroxy-5-(4-methylpiperazin-1-yl)pyridin-3-yl)amino)-2,6-naphthyridin-1-yl)ethynyl)pyridazin-3(2H)-one]
[1]; [5]
  IC50: > 250 nM
[2]; [12]
  IC50: 25 to 250 nM
[3]; [7]
  IC50: > 250 nM
[4]; [11]
  IC50: > 250 nM

## Cc1c(-c2nccc3cnc(Nc4ccc([S@@](C)(=N)=O)cc4)cc23)ccc2c1cnn2CC(O)(C(F)(F)F)C(F)(F)F [Example 724, (S)-1,1,1,3,3,3-hexafluoro-2-((4-methyl-5-(7-((4-(S-methylsulfonimidoyl)phenyl)amino)-2,6-naphthyridin-1-yl)-1H-indazol-1-yl)methyl)propan-2-ol]
[1]; [9]
  IC50: 25 to 250 nM
[2]; [6]
  IC50: < 25 nM
[3]; [7]
  IC50: > 250 nM
[4]; [8]
  IC50: 25 to 250 nM

## Cc1c(-c2nccc3cnc(Nc4ccc([S@](C)(=N)=O)cc4)cc23)ccc2c1cnn2CC(O)(C(F)(F)F)C(F)(F)F [Example 725, (R)-1,1,1,3,3,3-hexafluoro-2-((4-methyl-5-(7-((4-(S-methylsulfonimidoyl)phenyl)amino)-2,6-naphthyridin-1-yl)-1H-indazol-1-yl)methyl)propan-2-ol]
[1]; [9]
  IC50: 25 to 250 nM
[2]; [6]
  IC50: < 25 nM
[3]; [7]
  IC50: > 250 nM
[4]; [8]
  IC50: 25 to 250 nM

## Cc1c(-c2nccc3cnc(Nc4ccc(S(=O)(=O)N(C)c5ncccn5)cc4)cc23)ccc2c1cnn2CC(O)(C(F)(F)F)C(F)(F)F [Example 732, N-methyl-4-((5-(4-methyl-1-(3,3,3-trifluoro-2-hydroxy-2-(trifluoromethyl)propyl)-1H-indazol-5-yl)-2,6-naphthyridin-3-yl)amino)-N-(pyrimidin-2-yl)benzenesulfonamide]
[1]; [5]
  IC50: > 250 nM
[2]; [12]
  IC50: 25 to 250 nM
[3]; [7]
  IC50: > 250 nM
[4]; [11]
  IC50: > 250 nM

## CCN(c1ncccn1)S(=O)(=O)c1ccc(Nc2cc3c(-c4ccc5c(cnn5CC(C)(C)O)c4C)nccc3cn2)cc1 [Example 733, N-ethyl-4-((5-(1-(2-hydroxy-2-methylpropyl)-4-methyl-1H-indazol-5-yl)-2,6-naphthyridin-3-yl)amino)-N-(pyrimidin-2-yl)benzenesulfonamide]
[1]; [9]
  IC50: 25 to 250 nM
[2]; [6]
  IC50: < 25 nM
[3]; [7]
  IC50: > 250 nM
[4]; [11]
  IC50: > 250 nM

## Cc1c(-c2nccc3cnc(Nc4ccc(NS(=O)(=O)c5cccc(N6CCNCC6)c5)cc4)cc23)ccc2c1cnn2CC(C)(C)O [Example 752, N-(4-((5-(1-(2-hydroxy-2-methylpropyl)-4-methyl-1H-indazol-5-yl)-2,6-naphthyridin-3-yl)amino)phenyl)-3-(piperazin-1-yl)benzenesulfonamide]
[1]; [5]
  IC50: > 250 nM
[2]; [6]
  IC50: < 25 nM
[3]; [7]
  IC50: > 250 nM
[4]; [11]
  IC50: > 250 nM

## Cc1c(-c2nccc3cnc(Nc4ccc(S(=O)(=O)Nc5ccc(N(C)C)nn5)cc4)cc23)ccc2c1cnn2CC(C)(C)O [Example 765, N-(6-(dimethylamino)pyridazin-3-yl)-4-((5-(1-(2-hydroxy-2-methylpropyl)-4-methyl-1H-indazol-5-yl)-2,6-naphthyridin-3-yl)amino)benzenesulfonamide]
[1]; [9]
  IC50: 25 to 250 nM
[2]; [6]
  IC50: < 25 nM
[3]; [10]
  IC50: 25 to 250 nM
[4]; [8]
  IC50: 25 to 250 nM
